Experiment [1] addresses T1, Melatonin receptor type 1A (Homo sapiens, UniProt P48039). Kind of experiment: Displacement of 2-[125I]iodomelatonin from human MT1 receptor expressed in HEK or CHO cell membranes after 120 mins.
The target in experiment [2] is T2, Melatonin receptor type 1B (Homo sapiens, UniProt P49286).
T2 sequence (P49286 whole entry): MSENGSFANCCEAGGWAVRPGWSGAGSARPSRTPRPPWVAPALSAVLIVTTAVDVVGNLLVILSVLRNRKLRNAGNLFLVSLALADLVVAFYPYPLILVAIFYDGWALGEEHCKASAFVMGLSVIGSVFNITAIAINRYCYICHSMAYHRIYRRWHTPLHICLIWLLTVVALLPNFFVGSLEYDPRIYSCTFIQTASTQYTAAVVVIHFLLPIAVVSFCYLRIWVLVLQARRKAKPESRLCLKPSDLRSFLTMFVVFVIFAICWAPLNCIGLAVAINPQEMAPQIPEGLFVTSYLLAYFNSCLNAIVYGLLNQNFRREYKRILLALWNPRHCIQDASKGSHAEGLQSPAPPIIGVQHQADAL
Kind of experiment: Displacement of 2-[125I]iodomelatonin from human MT2 receptor expressed in HEK or CHO cell membranes after 120 mins.

For a further experiment, the species on record is Homo sapiens. As to the kind of experiment: Selectivity ratio of Ki for human MT1 receptor to Ki for human MT2 receptor.
Experiment [3] has as its target T1, Melatonin receptor type 1A. As to the kind of experiment: Intrinsic activity at human MT1 receptor expressed in CHO cell membranes after 1 hr by [35S]GTPgammaS binding assay. Format: functional. A general note: GTPγS resists hydrolysis and so accumulates on activated G proteins.
In experiment [4] the target is T2, Melatonin receptor type 1B. As to the kind of experiment: Intrinsic activity at human MT2 receptor expressed in CHO cell membranes after 1 hr by [35S]GTPgammaS binding assay. Format: functional.

Each structure is given as a SMILES string. A value given as a limit tells only on which side of the number the result lay.

T1 sequence (P48039 whole entry): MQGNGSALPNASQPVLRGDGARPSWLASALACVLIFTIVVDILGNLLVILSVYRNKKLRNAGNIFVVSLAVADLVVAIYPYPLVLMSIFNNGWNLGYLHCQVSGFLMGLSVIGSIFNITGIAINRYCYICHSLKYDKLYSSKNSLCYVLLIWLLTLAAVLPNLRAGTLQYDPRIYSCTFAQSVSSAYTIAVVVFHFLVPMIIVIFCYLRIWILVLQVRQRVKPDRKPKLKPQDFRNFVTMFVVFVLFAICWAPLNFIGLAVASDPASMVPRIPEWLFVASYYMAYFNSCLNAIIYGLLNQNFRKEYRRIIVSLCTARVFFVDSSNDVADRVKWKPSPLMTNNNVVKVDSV

By Ki is commonly meant a measure of affinity in units of concentration, obtained from inhibition or displacement. A high value points to a looser hold on the target. With `COc1ccc2cccc(CCC(=O)NC3CC3)c2n1`, the Ki in experiment [1] amounted to 34 nM; in experiment [2], 0.5 nM. Further, in the experiment filed under Homo sapiens, the Ratio Ki worked out at 86.

As a reminder, the EC50 is the midpoint of the concentration-response curve. Low values mean higher potency in that assay, high ones lower potency in that assay. For the compound `CNC(=S)NCCc1cccc2ccc(OC)nc12`, the values for the Ki in experiment [1] and in experiment [2] were 2 nM and 0.1 nM, respectively. Moreover, the EC50 amounted to 90 nM in experiment [3] and 0.1 nM in experiment [4].

For `CNC(=S)NCCc1cccc2ncc(OC)cc12`, the Ki was > 10000 nM in experiment [1] and 250 nM in experiment [2].

In the case of `COc1cnc2cccc(CCNC(=O)CF)c2c1`, the Ki in experiment [1] was determined as 29 nM; in experiment [2], 6 nM.

For `COc1ccc2cccc(CCNC(C)=O)c2n1`, the results for the Ki in experiment [1] and in experiment [2] were 0.3 nM and 0.2 nM, respectively. The concentration for a half-maximal effect (EC50) in experiment [3] stood at 0.8 nM; in experiment [4], 0.2 nM.

With `CCNC(=O)NCCc1cccc2ncc(OC)cc12`, the Ki worked out at 575 nM in experiment [1] and 73 nM in experiment [2].

For `COc1cnc2cccc(CCNC(C)=O)c2c1`, the Ki was found to be 60 nM in experiment [1] and 4 nM in experiment [2].

Turning to `COc1cnc2cccc(CCNC(N)=O)c2c1`, the values for the inhibition constant Ki in experiment [1] and in experiment [2] were 315 nM and 40 nM, respectively.

As to `CCNC(=O)NCCc1cccc2ccc(OC)nc12`, the Ki in experiment [1] was 0.8 nM; in experiment [2], 0.09 nM. Besides, the EC50 in experiment [3] came out at 9.5 nM; in experiment [4], 0.2 nM.

In the case of `CCNC(=S)NCCc1cccc2ccc(OC)nc12`, the Ki in experiment [1] was 4 nM; in experiment [2], 0.4 nM. Besides, the EC50 in experiment [3] stood at 31 nM; in experiment [4], 1.1 nM.

Regarding `CCNC(=S)NCCc1cccc2ncc(OC)cc12`, the Ki in experiment [1] came to 690 nM; in experiment [2], 550 nM.

As for `CNC(=O)CCc1cccc2ccc(OC)nc12`, the Ki in experiment [1] was 8 nM; in experiment [2], 0.3 nM. The 50% effective concentration (EC50) came to 65 nM in experiment [3] and 0.7 nM in experiment [4]. The Ratio Ki in the experiment listed under Homo sapiens came to 27.

As for `COC(=O)NCCc1cccc2ncc(OC)cc12`, the Ki in experiment [1] was > 10000 nM; in experiment [2], 430 nM.

As to `COC(=O)NCCc1cccc2ccc(OC)nc12`, the Ki came out at 7 nM in experiment [1] and 0.3 nM in experiment [2]. The figures for the 50% effective concentration (EC50) in experiment [3] and in experiment [4] were > 1000 nM and 0.4 nM, respectively.

On to `COc1cnc2cccc(CCNC(=O)C3CC3)c2c1`, for which the Ki in experiment [1] was 124 nM; in experiment [2], 26 nM.

On to `COc1ccc2ccc(CCNC(C)=O)cc2n1`, for which the Ki in experiment [1] is 58 nM; in experiment [2], 22 nM.

For `COc1ccc2cccc(CCC(=O)NCCF)c2n1`, the figures for the Ki in experiment [1] and in experiment [2] were 19 nM and 0.3 nM, respectively.

On to `CNC(=O)NCCc1cccc2ccc(OC)nc12`, for which the results for the Ki in experiment [1] and in experiment [2] were 0.6 nM and 0.09 nM, respectively. The results for the EC50 in experiment [3] and in experiment [4] were 19 nM and 0.09 nM, respectively.

Turning to `COc1ccc2cccc(CCNC(N)=O)c2n1`, the inhibitory constant (Ki) came to 2 nM in experiment [1] and 0.2 nM in experiment [2]. The EC50 in experiment [3] was found to be 1620 nM; in experiment [4] it was 0.2 nM.

The record behind these values is ChEMBL document CHEMBL3992543, “New quinolinic derivatives as melatonergic ligands: Synthesis and pharmacological evaluation” (Eur J Med Chem, 2017).
